US11006626B2, “Compounds for protection of cells” (Sulfateq B.V., priority 2012, dated 2021)

Key:
[1] = system: porcine hearts; assay: Cold ischemic tolerance of porcine hearts, reperfusion in PhysioHeart platform; parameters: species or system pig
From the text: This example studies if SUL 109 as additive to standard heart transplantation protocols will help to prolong the maximal cold ischemic protection of porcine hearts. For long term arrest, for example in case of transplantation, a commonly used solution is CUSTODIOL®. With CUSTODIOL® solution it is possible to keep a heart in a cold ischemic state for up to six hours before reperfusion with warm oxygenated blood is necessary.
Two hearts were harvested from slaughterhouse pigs and treated as follows. […] After exsanguinations the sternum was quickly opened and the heart and lungs were removed as a whole. The heart was immediately submersed in an ice cold bath and the aorta was cut proximal to the brachocephalic side branches. A 19 mm cannula was inserted in the aorta and tied off. The carefully de-aired cannulla was used to retrogradely administer cold cardioplegic solution. In the first heart, 2 liters of standard CUSTODIOL® with 5000 IU/1 of heparin added was administered. The second heart was administered 2 liters of CUSTODIOL® with 5000 IU/1 of heparin and 10 ml/l of SUL 109 in 0.9% NaCl at 75 μM. Both hearts were stored in plastic bags filled with the same solutions and transported to the lab on ice at approximately 4° C. Before preparation the hearts were stored at 4° C. for 24 hours. The next day both hearts were prepared to be mounted in the PhysioHeart platform as described in DeHart et al 2011. After de-airing the hearts, retrograde reperfusion of the aorta was started with warm oxygenated blood at 38° C. Both flow of blood and pressure at the aortic root were registered during the experiment.

[2] = system: Human Embryo Kidney (HEK) 293 cells; assay: Hypothermia/rewarming injury of HEK cells, trypan blue viability count; assay type: cell-based; details: for viability at 0.01 µM / viability at 0.1 µM / viability at 1 µM / viability at 10 µM / viability at 100 µM / viability at 1000 µM: Homo sapiens, HEK293, 24 h, read-out: % cells that survived; for viability at 0.01 µM / viability at 0.1 µM / viability at 1 µM / viability at 10 µM / viability at 100 µM / viability at 1000 µM / % cells that survived: 24 h at 4° C., 24 h rewarming; for % cells that survived, Mean: mean over the tested concentrations
Description: Human Embryo Kidney (HEK) 293 cells were cultured in DMEM cell culture medium (Life Technologies, 41965-052) supplemented with fetal calf serum, penicillin and streptomycin. Cells were seeded at a density of 0.8-1.2E6 mL-1 in 25 cm2 polystyrene flasks, placed in a 37° C.
The compounds were dissolved in dimethyl sulfoxide (DMSO) to several concentrations. Before commencing experiments, this stock solution was dissolved in pre-warmed DMEM and further diluted to obtain a concentration range from 10 nM-1 mM. Cell culture medium was then replaced by these dilutions and cells were incubated in the presence of the compound for 1 hour. After incubation, lids were closed tightly and flasks were placed in a 4° C. room and cooled for 24 hours. After this cooling period, cells were placed back in the 37° C. incubator with lids closed and were allowed to rewarm for another 24 hours.
After this rewarming period, microscopic images were taken to assess cell morphology (Nikon D5100, Nikon Diaphot-TMD). Cell culture medium was collected and centrifuged (4 minutes, 2000 rpm). The supernatant was collected and pH was immediately measured to prevent equilibration of the pH by the carbonate buffer in the medium, while the pelleted cells were resuspended in 5 mL of PBS. Cells remaining in the flask were washed twice with phosphate buffered saline (PBS) while the washing product was discarded. Subsequently, the cells were trypsinized by addition of 0.5 mL of trypsine and pooled with the resuspended pellet. This cell suspension was then stained at a final concentration of 0.2% trypan blue (Sigma, T8154), followed by manual assessment of viability and cell number on a Bürker-Türk hemocytometer. To conclude the assay, cell culture medium glucose levels were measured (Roche Accutrend Plus) as an indication of metabolic activity. All of these steps were performed with care to prevent mechanical stress to influence or alter the viability of the cells after cooling.
The amount represents the % cells that survived. […] In the control, the same procedure was applied to two badges of HEK cells.

[3] = system: blood platelets; assay: Cold storage of PRP blood platelets, aggregation of thrombocytes after storage; assay type: cell-based; parameters: key: − means that most of the thrombocytes were aggregated; a + indicates that a few cells were still viable but some cells aggregated; a ++ indicates that almost all cells were viable; details: 30 mM; PRP platelets stored at 4° C.; 264 hours
Description: PRP platelets were harvested and 2.1 ml was suspended in Poly Propylene tubes of 5 ml, closed with a stop.
Several compounds according to the invention were added to the blood platelets directly after preparing the PRP plasma and incubated during 10 minutes at 37° C. or 30 minutes at room temperature. The blood platelets with the compound were then stored at 4° C.
A control was stored under shaking conditions at room temperature. Another control was stored at 4° C. without the addition of a compound.
A sample was taken out of each tube after 264 hours after addition of the compound and tested as follows: • The color and coagulation properties were visually analysed. • The thrombocyte cells that survived were counted and it was evaluated whether the thrombocytes were aggregated. • It was evaluated if the thrombocytes still were able to function after stimulation by the addition of ADP or under influence of collagen in a 96 well plate. • The adhesion was evaluated, meaning the ability of the platelets to bind collagen in a 6 well plate preincubated with collagen. • Via an ELISA assay, it was evaluated whether thromboxane was secreted from the platelets. Thromboxane facilitates aggregation and is produced by activated blood platelets.
Table 3 provides an overview of the results of the addition of the compounds to the blood platelets and evaluates the aggregation of the thrombocytes after addition of the compound according to the invention and cooling until 4° C.

[4] = at reperfusion after 24 hours at 4° C., vs. non treated heart

| Structure (SMILES) | contraction after defibrillation shocks ([1]; at reperfusion after 24 hours at 4° C.) | contractile activity [1, 4] | vascular resistance [1, 4] | coronary flow ([1]; perfusion pressure of 80 mmHg, reperfusion after 24 hours at 4° C.) | contractive activity of the myocardial tissue ([1]; treated vs. non-treated heart) | viability at 0.01 µM ([2]; 10 nM) | viability at 0.1 µM ([2]; 100 nM) | viability at 1 µM ([2]; 1 μM) | viability at 10 µM ([2]; 10 μM) | viability at 100 µM ([2]; 100 μM) | viability at 1000 µM ([2]; 1 mM) | % cells that survived, Mean [2] | Aggregation of blood platelets after storage [3] | % cells that survived ([2]; 10 nM) | % cells that survived ([2]; 100 nM) | % cells that survived ([2]; 1 μM) | % cells that survived ([2]; 10 μM) | % cells that survived ([2]; 100 μM) | % cells that survived ([2]; 1 mM) |
| --- | --- | --- | --- | --- | --- | --- | --- | --- | --- | --- | --- | --- | --- | --- | --- | --- | --- | --- | --- |
| Cc1c(C)c2c(c(C)c1O)CCC(C)(C(=O)N1CCN(CCO)CC1)O2 (stereo not shown) [SUL - 109, (6-hydroxy-2,5,7,8-tetramethylchroman-2-yl)(4-(2-hydroxyethyl)piperazin-1-yl)methanone] | weak contractive unpaced pattern | more contractile activity compared to the non treated one | lower vascular resistance | 1 lpm | improved regular contractive activity | 92.6% | 98% | 97% | 94.9% | 93.7% | 87.4% | 94% |  |  |  |  |  |  |  |
| CCCCNCC1(C)CCc2c(C)c(O)c(C)c(C)c2O1 (stereo not shown) [SUL - 117, 2-((butylamino)methyl)-2,5,7,8-tetramethylchroman-6-ol] |  |  |  |  |  | 0.72% | 89.3% | 93.6% | 84.8% | 90.1% | 0% | 60% | + |  |  |  |  |  |  |
| Cc1c2c(c(C(C)C)c(O)c1C(C)C)CCC(C)(C(=O)O)O2 (stereo not shown) [SUL - 118, 6-hydroxy-5,7-diisopropyl-2,8-dimethylchroman-2-carboxylic acid] |  |  |  |  |  | 13.7% | 45.7% | 36.2% | 52.9% | 88.5% | 92.5% | 55% | + |  |  |  |  |  |  |
| Cc1c(C)c2c(c(C)c1O)CCC(C)(C(=O)N[C@H](C)CO)O2 (stereo partly drawn) [SUL - 120, 6-hydroxy-N-((R)-1-hydroxypropan-2-yl)-2,5,7,8-tetramethylchroman-2-carboxamide] |  |  |  |  |  | 17.6% | 65.3% | 95.5% | 91.6% | 88.7% | 81.5% | 73% | + |  |  |  |  |  |  |
| Cc1c(C)c2c(c(C)c1O)CCC(C)(C(=O)N1CCNCC1)O2 (stereo not shown) [SUL - 121, (6-hydroxy-2,5,7,8-tetramethylchroman-2-yl)(piperazin-1-yl)methanone] |  |  |  |  |  | 87.3% | 89% | 94.8% | 88.9% | 92.7% | 0% | 75% | + |  |  |  |  |  |  |
| Cc1c(C)c2c(c(C)c1O)CC[C@](C)(C(=O)NO)O2 [SUL - 125, (R)-N,6-dihydroxy-2,5,7,8-tetramethylchroman-2-carboxamide] |  |  |  |  |  | 8.09% | 0% | 97.3% | 96.7% | 88.4% | 22.5% | 52% | + |  |  |  |  |  |  |
| Cc1c(C)c2c(c(C)c1O)CC[C@@](C)(C(=O)NO)O2 [SUL - 126, (S)-N,6-dihydroxy-2,5,7,8-tetramethylchroman-2-carboxamide] |  |  |  |  |  | 0% | 0% | 68.1% | 92.7% | 98.6% | 80.2% | 57% | + |  |  |  |  |  |  |
| Cc1c(C)c2c(c(C)c1O)CCC(C)(C(=O)N1CCN(CCO)CC1)O2 (stereo not shown) [SUL - 132, (6-hydroxy-2,5,7,8-tetramethylchroman-2-yl)(4-(2-hydroxyethyl)piperazin-1-yl)methanone] |  |  |  |  |  |  |  |  |  |  |  | 89% | + | 93.96% | 91.41% | 88.30% | 91.11% | 89.73% | 80.51% |
| Cc1c(C)c2c(c(C)c1O)CCC(C)(C(=O)N1CCN(CCO)CC1)O2 (stereo not shown) [SUL - 138, (6-hydroxy-2,5,7,8-tetramethylchroman-2-yl)(4-(2-hydroxyethyl)piperazin-1-yl)methanone] |  |  |  |  |  |  |  |  |  |  |  | 89% | + | 92.84% | 91.74% | 77.01% | 91.71% | 93.30% | 86.94% |
| Cc1c2c(c(C(C)C)c(O)c1C(C)C)CCC(C)(C(=O)N1CCN(CC(=O)O)CC1)O2 (stereo not shown) [SUL - 139, 2-(4-(6-hydroxy-5,7-diisopropyl-2,8-dimethylchroman-2-carbonyl)piperazin-1-yl)acetic acid] |  |  |  |  |  | 13.3% | 4.57% | 4.26% | 90% | 89.7% | 80.3% | 47% | + |  |  |  |  |  |  |
| Cc1c(C)c2c(c(C)c1O)CC[C@@](C)(C(=O)N1CCN(CC(=O)O)CC1)O2 [SUL - 141, (S)-2-(4-(6-hydroxy-2,5,7,8-tetramethylchroman-2-carbonyl)piperazin-1-yl)acetic acid] |  |  |  |  |  | 58.5% | 96.2% | 0.75% | 99.4% | 96.8% | 99.1% | 75% | + |  |  |  |  |  |  |
| Cc1c(C)c2c(c(C)c1O)CC[C@](C)(C(=O)N1CCN(CC(=O)O)CC1)O2 [SUL - 142, (R)-2-(4-(6-hydroxy-2,5,7,8-tetramethylchroman-2-carbonyl)piperazin-1-yl)acetic acid] |  |  |  |  |  | 0% | 73% | 98.5% | 99.2% | 99.4% | 91.9% | 77% | ++ |  |  |  |  |  |  |
